# Test results reported in article PMC9427925, “The measurement of binding affinities by NMR chemical shift perturbation” (Journal of Biomolecular Nmr, 2022).
# Target: T1, HisJ (Escherichia coli, UniProt P0AEU0)
# T1 construct: HisJ (241 residues)
# Test: […] HSQC/TROSY NMR chemical shift perturbation titration, global fit of all 1H and […] shifts
# Format: binding
# T1 sequence (P0AEU0 23-260): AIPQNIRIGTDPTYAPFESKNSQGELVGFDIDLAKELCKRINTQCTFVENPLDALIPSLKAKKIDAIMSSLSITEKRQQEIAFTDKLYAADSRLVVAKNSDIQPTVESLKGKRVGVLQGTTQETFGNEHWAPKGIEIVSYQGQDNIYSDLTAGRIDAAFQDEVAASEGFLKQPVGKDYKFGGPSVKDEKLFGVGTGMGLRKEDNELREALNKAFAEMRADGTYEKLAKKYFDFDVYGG
structure (smiles),measurement,value
NCCCC[C@H](N)C(=O)O [lysine],Kd,55.3 ± 0.4 µM
